{"source": "ChEMBL document CHEMBL3885861", "about": "“Open TG-GATES”", "species_on_record": "Rattus norvegicus", "test": "Open TG-GATES - Regimen: Single", "type": "toxicity, organism-based, Sprague-Dawley", "parameters": "regimen Single, gender Male, age 6 weeks", "settings": "in vivo, po, 4000 mg/kg, route gavage, dose level High; for APTT / Bas / Eos / Fbg / Hb / Ht / Lym / MCH / MCHC / MCV / Mono / Neu / PT / Plat / RBC / Ret / WBC: tissue Blood; for KIDNEY_L / KIDNEY_R / KIDNEY_TOTAL: tissue Kidney; for LIVER: tissue Liver; for A/G / ALP / ALT / AST / BUN / CRE / Ca / Cl / DBIL / GLC / IP / K / LDH / Na / PL / RALB / TBIL / TC / TG / TP / gamma-GTP: tissue Plasma"}
{"compound": "CCO", "note": "[ALCOHOL]", "values": [{"measurement": "TERMINAL_BW", "setting": "3 h", "result": 206.9, "unit": "g"}, {"measurement": "APTT", "setting": "3 h", "result": 17.9, "unit": "s"}, {"measurement": "Bas", "setting": "3 h", "result": 0, "unit": "%"}, {"measurement": "Eos", "setting": "3 h", "result": 1.6, "unit": "%"}, {"measurement": "Fbg", "setting": "3 h", "result": 188.4, "unit": "mg/dL"}, {"measurement": "Hb", "setting": "3 h", "result": 13.4, "unit": "g/dL"}, {"measurement": "Ht", "setting": "3 h", "result": 40.1, "unit": "%"}, {"measurement": "Lym", "setting": "3 h", "result": 78, "unit": "%"}, {"measurement": "MCH", "setting": "3 h", "result": 21.9, "unit": "pg"}, {"measurement": "MCHC", "setting": "3 h", "result": 33.4, "unit": "%"}, {"measurement": "MCV", "setting": "3 h", "result": 65.6, "unit": "fL"}, {"measurement": "Mono", "setting": "3 h", "result": 7.2, "unit": "%"}, {"measurement": "Neu", "setting": "3 h", "result": 13.8, "unit": "%"}, {"measurement": "PT", "setting": "3 h", "result": 12.2, "unit": "s"}, {"measurement": "Plat", "setting": "3 h", "result": 110.6, "unit": "x10_4/uL"}, {"measurement": "RBC", "setting": "3 h", "result": 612.2, "unit": "x10_4/ul"}, {"measurement": "Ret", "setting": "3 h", "result": 9.9, "unit": "%"}, {"measurement": "WBC", "setting": "3 h", "result": 86.8, "unit": "x10_2/uL"}, {"measurement": "KIDNEY_L", "setting": "3 h", "result": 1, "unit": "g"}, {"measurement": "KIDNEY_R", "setting": "3 h", "result": 1, "unit": "g"}, {"measurement": "KIDNEY_TOTAL", "setting": "3 h", "result": 1.9, "unit": "g"}, {"measurement": "LIVER", "setting": "3 h", "result": 9.6, "unit": "g"}, {"measurement": "A/G", "setting": "3 h", "result": 2.5}, {"measurement": "ALP", "setting": "3 h", "result": 733.4, "unit": "IU/L"}, {"measurement": "ALT", "setting": "3 h", "result": 35.2, "unit": "IU/L"}, {"measurement": "AST", "setting": "3 h", "result": 65.8, "unit": "IU/L"}, {"measurement": "BUN", "setting": "3 h", "result": 8.8, "unit": "mg/dL"}, {"measurement": "CRE", "setting": "3 h", "result": 0.5, "unit": "mg/dL"}, {"measurement": "Ca", "setting": "3 h", "result": 10.3, "unit": "mg/dL"}, {"measurement": "Cl", "setting": "3 h", "result": 104.4, "unit": "meq/L"}, {"measurement": "DBIL", "setting": "3 h", "result": 0.02, "unit": "mg/dL"}, {"measurement": "GLC", "setting": "3 h", "result": 212.4, "unit": "mg/dL"}, {"measurement": "IP", "setting": "3 h", "result": 9.1, "unit": "mg/dL"}, {"measurement": "K", "setting": "3 h", "result": 4.7, "unit": "meq/L"}, {"measurement": "LDH", "setting": "3 h", "result": 106.2, "unit": "IU/L"}, {"measurement": "Na", "setting": "3 h", "result": 139.8, "unit": "meq/L"}, {"measurement": "PL", "setting": "3 h", "result": 148.4, "unit": "mg/dL"}, {"measurement": "RALB", "setting": "3 h", "result": 3.8, "unit": "g/dL"}, {"measurement": "TBIL", "setting": "3 h", "result": 0.4, "unit": "mg/dL"}, {"measurement": "TC", "setting": "3 h", "result": 79.8, "unit": "mg/dL"}, {"measurement": "TG", "setting": "3 h", "result": 77.8, "unit": "mg/dL"}, {"measurement": "TP", "setting": "3 h", "result": 5.3, "unit": "g/dL"}, {"measurement": "gamma-GTP", "setting": "3 h", "result": 1.8, "unit": "IU/L"}, {"measurement": "TERMINAL_BW", "setting": "6 h", "result": 206.9, "unit": "g"}, {"measurement": "APTT", "setting": "6 h", "result": 19.1, "unit": "s"}, {"measurement": "Bas", "setting": "6 h", "result": 0, "unit": "%"}, {"measurement": "Eos", "setting": "6 h", "result": 1.2, "unit": "%"}, {"measurement": "Fbg", "setting": "6 h", "result": 205, "unit": "mg/dL"}, {"measurement": "Hb", "setting": "6 h", "result": 13.5, "unit": "g/dL"}, {"measurement": "Ht", "setting": "6 h", "result": 40.4, "unit": "%"}, {"measurement": "Lym", "setting": "6 h", "result": 81, "unit": "%"}, {"measurement": "MCH", "setting": "6 h", "result": 21.3, "unit": "pg"}, {"measurement": "MCHC", "setting": "6 h", "result": 33.4, "unit": "%"}, {"measurement": "MCV", "setting": "6 h", "result": 63.9, "unit": "fL"}, {"measurement": "Mono", "setting": "6 h", "result": 4.6, "unit": "%"}, {"measurement": "Neu", "setting": "6 h", "result": 13.4, "unit": "%"}, {"measurement": "PT", "setting": "6 h", "result": 11.8, "unit": "s"}, {"measurement": "Plat", "setting": "6 h", "result": 112.3, "unit": "x10_4/uL"}, {"measurement": "RBC", "setting": "6 h", "result": 632.8, "unit": "x10_4/ul"}, {"measurement": "Ret", "setting": "6 h", "result": 13.6, "unit": "%"}, {"measurement": "WBC", "setting": "6 h", "result": 124.9, "unit": "x10_2/uL"}, {"measurement": "KIDNEY_L", "setting": "6 h", "result": 1, "unit": "g"}, {"measurement": "KIDNEY_R", "setting": "6 h", "result": 1, "unit": "g"}, {"measurement": "KIDNEY_TOTAL", "setting": "6 h", "result": 1.9, "unit": "g"}, {"measurement": "LIVER", "setting": "6 h", "result": 9.6, "unit": "g"}, {"measurement": "A/G", "setting": "6 h", "result": 2.3}, {"measurement": "ALP", "setting": "6 h", "result": 839.4, "unit": "IU/L"}, {"measurement": "ALT", "setting": "6 h", "result": 31, "unit": "IU/L"}, {"measurement": "AST", "setting": "6 h", "result": 59.4, "unit": "IU/L"}, {"measurement": "BUN", "setting": "6 h", "result": 8.6, "unit": "mg/dL"}, {"measurement": "CRE", "setting": "6 h", "result": 0.5, "unit": "mg/dL"}, {"measurement": "Ca", "setting": "6 h", "result": 10.4, "unit": "mg/dL"}, {"measurement": "Cl", "setting": "6 h", "result": 104.2, "unit": "meq/L"}, {"measurement": "DBIL", "setting": "6 h", "result": 0.078, "unit": "mg/dL"}, {"measurement": "GLC", "setting": "6 h", "result": 204.6, "unit": "mg/dL"}, {"measurement": "IP", "setting": "6 h", "result": 9.7, "unit": "mg/dL"}, {"measurement": "K", "setting": "6 h", "result": 5, "unit": "meq/L"}, {"measurement": "LDH", "setting": "6 h", "result": 78, "unit": "IU/L"}, {"measurement": "Na", "setting": "6 h", "result": 139, "unit": "meq/L"}, {"measurement": "PL", "setting": "6 h", "result": 153.6, "unit": "mg/dL"}, {"measurement": "RALB", "setting": "6 h", "result": 3.7, "unit": "g/dL"}, {"measurement": "TBIL", "setting": "6 h", "result": 0.4, "unit": "mg/dL"}, {"measurement": "TC", "setting": "6 h", "result": 82.6, "unit": "mg/dL"}, {"measurement": "TG", "setting": "6 h", "result": 46, "unit": "mg/dL"}, {"measurement": "TP", "setting": "6 h", "result": 5.4, "unit": "g/dL"}, {"measurement": "gamma-GTP", "setting": "6 h", "result": 1.4, "unit": "IU/L"}]}
